These results are taken from patent US8927579B2, “Male contraceptive” (priority 2007, dated 2015).

Structures can show the parent of a compound that is named as a salt. A value given as a limit tells only on which side of the number the result lay.

The test system of assay [1] is circular muscle of human vas deferens. The assay is described as follows: New molecules against contractions to high K+ (120 mM), circular muscle. As to conditions: contractions evoked by K+ (120 mM), preliminary data, mean, n=2-3, read-out: Functional inhibitory potencies (IC50 values), Circular muscle. The text has this: (§1) Human vas deferens specimens were obtained after elective vasectomies of healthy fertile men. College ethical approval and the consent of patients were obtained. The specimens were placed in ice-cold Krebs' medium, dissected-free of connective tissue/blood vessels and cut longitudinally into strips (longitudinal muscle preparations; 5-8 mm long & 1 mm wide) or transversely into rings (circular muscle preparations; ˜3 mm in length). The longitudinal and circular muscle preparations were then set up for tension recording (resting tension 5-7 mN) in a Perspex chamber superfused at 2 ml per min with Krebs' medium (36° C.) composed of (mM): NaCl, 118.8; NaHCO3, 25; KCl, 4.7; CaCl2.2H2O, 2.5; KH2PO4, 1.2; MgSO4.7H2O, 1.2; glucose, 11.1; ascorbic acid 0.1 and continuously gassed with 95% O2 and 5% CO2. Contractile responses were recorded via a Harvard type force-displacement transducer. The analog signals were digitised using CIO-Das 16/Jr data acquisition software (Amplicon Liveline, Brighton, UK) and re-plotted on a microcomputer.
(§2) Tissues were equilibrated for 180 min in Krebs' medium containing inhibitors of extraneuronal and neuronal reuptake of noradrenaline, oestradiol (1 μM) and desipramine (0.1 μM) respectively, inhibitors of catechol-O-methyltransferase and monoamine oxidase, tropolone (10 μM) and iproniazid (10 μM) respectively and the β-adrenoceptor blocker, propranolol (1 μM). At the end of the equilibration period, the tissues were stimulated with noradrenaline (100 μM). […] After 40-45 min in this medium the tissues were stimulated with high [K^+]O (120 mM, Initial response). This was followed by exposure to cumulative concentrations of the new molecules {NIBA(1)XC1, NIBA(14)XN10, NIBA(6)XN3, NIBA(2)XC2, NIBA(53)XN16} or to Krebs' medium containing drug vehicles (time-matched controls). After contact times of 40-60 min at each drug concentration, the tissues were stimulated with high [K^+]o (120 mM). The resulting contractions were measured using computer software developed in-house to measure the total response (i.e. rhythmic activity plus tonic contraction). Contractions obtained in the presence of the new drug molecules were expressed as a percentage of the initial contraction evoked by high [K^+]o (120 mM) before exposure to the drugs.

Assay [2] deals with longitudinal muscle of human vas deferens. Put plainly: New molecules against contractions to high K+ (120 mM), longitudinal muscle. The note with it: for IC50: Homo sapiens, contractions evoked by K+ (120 mM), preliminary data, mean, n=2-3, read-out: Functional inhibitory potencies (IC50 values), Longitudinal muscle; for relative effectiveness against longitudinal and circular muscle contractions: contractions evoked by high [K+]o; for Selectivity [(C/L)-1]: longitudinal muscle selectivity from IC50 values in circular and longitudinal muscle, K+ (120 mM).
Excerpt: as §1, §2

Assay [3] has the same test system. The assay is described as follows: Inhibition at fixed concentration of contractions evoked by high K+ in the presence of FPL 64176, longitudinal muscle. As to conditions: for inhibition at 10 µM: Homo sapiens.
Excerpt: as §1, with “5-10” for “5-8”, “3” for “˜3”, “Harvard-type” for “Harvard type”
Tissues were equilibrated for 180 min in Krebs' medium containing inhibitors of extraneuronal and neuronal reuptake of noradrenaline, oestradiol (1 μM) and desipramine (0.1 μM) respectively, inhibitors of catechol-O-methyltransferase and monoamine oxidase, tropolone (10 μM) and iproniazid (10 μM) respectively and the β-adrenoceptor blocker, propranolol (1 μM). At the end of the equilibration period, the tissues were stimulated with noradrenaline (100 μM). […] After a contact time of 30-40 min in this medium, different experimental protocols (described below) were adopted in order to • (a) Elucidate the contractile actions of L-type Ca^2+ agonists such as FPL 64176 or Bay K 8644. In these experiments, tissues were exposed to FPL 64176 (0.1-10 μM added cumulatively) or in separate experiments Bay K 8644 (0.1-10 μM added cumulatively). • (b) Investigate the effects of various diphenylalkylamines and conventional L-type Ca^2+ antagonists (methoxyverapamil or nifedipine) on contractions evoked by high concentrations of extracellular potassium (high [K^+]o) in the presence of L-type Ca^2+ agonists, FPL 64176 (1 μM) or Bay K 8644 (1 μM). In this protocol, tissues were stimulated with high [K^+]O (10, 30 and 120 mM at 10-15 min intervals) in normal Krebs' medium, then exposed to L-type Ca^2+ agonists for 20-30 min and subsequently stimulated with high [K^+]O (10, 30 and 120 mM) in the presence of the drugs. These provided the initial responses. […] The resulting contractions were measured (see below) and expressed as a percentage of corresponding initial responses to high [K^+]o evoked in the presence of L-type Ca^2+ agonists (i.e. before exposure to L-type Ca^2+ antagonists). […]

Assay [4] has the same test system. Put plainly: IC50 against contractions evoked by high K+ (120 mM) in the presence of FPL 64176, longitudinal muscle strips. The note with it: contractions evoked by K+ (120 mM) in the presence of FPL 64176 (1 μM), means ± S.E.M.
Excerpt: as §1, with “5-10” for “5-8”, “3” for “˜3”, “Harvard-type” for “Harvard type”
(§3) Tissues were equilibrated for 180 min in Krebs' medium containing inhibitors of extraneuronal and neuronal reuptake of noradrenaline, oestradiol (1 μM) and desipramine (0.1 μM) respectively, inhibitors of catechol-O-methyltransferase and monoamine oxidase, tropolone (10 μM) and iproniazid (10 μM) respectively and the β-adrenoceptor blocker, propranolol (1 μM). At the end of the equilibration period, the tissues were stimulated with noradrenaline (100 μM). […] After a contact time of 30-40 min in this medium, different experimental protocols (described below) were adopted in order to • (a) Elucidate the contractile actions of L-type Ca^2+ agonists such as FPL 64176 or Bay K 8644. In these experiments, tissues were exposed to FPL 64176 (0.1-10 μM added cumulatively) or in separate experiments Bay K 8644 (0.1-10 μM added cumulatively). • (b) Investigate the effects of various diphenylalkylamines and conventional L-type Ca^2+ antagonists (methoxyverapamil or nifedipine) on contractions evoked by high concentrations of extracellular potassium (high [K^+]o) in the presence of L-type Ca^2+ agonists, FPL 64176 (1 μM) or Bay K 8644 (1 μM). In this protocol, tissues were stimulated with high [K^+]O (10, 30 and 120 mM at 10-15 min intervals) in normal Krebs' medium, then exposed to L-type Ca^2+ agonists for 20-30 min and subsequently stimulated with high [K^+]O (10, 30 and 120 mM) in the presence of the drugs. These provided the initial responses. Following this and in the continuous presence of the L-type Ca^2+ agonists, the tissues were exposed additionally to L-type Ca^2+ antagonists (conventional or diphenylalkylamines) or drug-free vehicle medium. After contact times of 25-50 min the tissues were stimulated, first with high [K^+]O (either 30 mM or 120 mM) in order to take account of the well-documented use-dependent action of the diphenylalkylamine Ca^2+ antagonists. Following recovery from the test contraction and after a further 30-40 min, the tissues were then stimulated with high [K^+]o (10, 30 and 120 mM). This protocol is illustrated in FIGS. 3 and 4. The resulting contractions were measured (see below) and expressed as a percentage of corresponding initial responses to high [K^+]o evoked in the presence of L-type Ca^2+ agonists (i.e. before exposure to L-type Ca^2+ antagonists). […] Subsequent analysis (see below) was between contractions of drug-treated tissues and time-matched controls • (c) Determine the inhibitory potencies (IC50 values) of various diphenylalkylamines and phenothiazines and conventional L-type Ca^2+ antagonists (nifedipine and methoxyverapamil) against contractions evoked in longitudinal and circular muscle of human vas deferens by high [K^+]o (120 mM) in the presence of FPL 64176. In these experiments, tissues were stimulated with high [K^+]o (120 mM); sequentially in normal Krebs' medium and after 25-30 min exposure to the L-type Ca^2+ agonist, FPL 64176, (1 μM, Initial response). […]

The test system of assay [5] is circular muscle of human vas deferens. Put plainly: Inhibition at fixed concentration of contractions evoked by high K+ in the presence of FPL 64176, circular muscle. As to conditions: for inhibition at 10 µM: Homo sapiens.
Excerpt: as §1, with “5-10” for “5-8”, “3” for “˜3”, “Harvard-type” for “Harvard type”
Tissues were equilibrated for 180 min in Krebs' medium containing inhibitors of extraneuronal and neuronal reuptake of noradrenaline, oestradiol (1 μM) and desipramine (0.1 μM) respectively, inhibitors of catechol-O-methyltransferase and monoamine oxidase, tropolone (10 μM) and iproniazid (10 μM) respectively and the β-adrenoceptor blocker, propranolol (1 μM). At the end of the equilibration period, the tissues were stimulated with noradrenaline (100 μM). […] After a contact time of 30-40 min in this medium, different experimental protocols (described below) were adopted in order to • (a) Elucidate the contractile actions of L-type Ca^2+ agonists such as FPL 64176 or Bay K 8644. In these experiments, tissues were exposed to FPL 64176 (0.1-10 μM added cumulatively) or in separate experiments Bay K 8644 (0.1-10 μM added cumulatively). • (b) Investigate the effects of various diphenylalkylamines and conventional L-type Ca^2+ antagonists (methoxyverapamil or nifedipine) on contractions evoked by high concentrations of extracellular potassium (high [K^+]o) in the presence of L-type Ca^2+ agonists, FPL 64176 (1 μM) or Bay K 8644 (1 μM). In this protocol, tissues were stimulated with high [K^+]O (10, 30 and 120 mM at 10-15 min intervals) in normal Krebs' medium, then exposed to L-type Ca^2+ agonists for 20-30 min and subsequently stimulated with high [K^+]O (10, 30 and 120 mM) in the presence of the drugs. These provided the initial responses. Following this and in the continuous presence of the L-type Ca^2+ agonists, the tissues were exposed additionally to L-type Ca^2+ antagonists (conventional or diphenylalkylamines) or drug-free vehicle medium. After contact times of 25-50 min the tissues were stimulated, first with high [K^+]O (either 30 mM or 120 mM) in order to take account of the well-documented use-dependent action of the diphenylalkylamine Ca^2+ antagonists. Following recovery from the test contraction and after a further 30-40 min, the tissues were then stimulated with high [K^+]o (10, 30 and 120 mM). This protocol is illustrated in FIGS. 3 and 4. The resulting contractions were measured (see below) and expressed as a percentage of corresponding initial responses to high [K^+]o evoked in the presence of L-type Ca^2+ agonists (i.e. before exposure to L-type Ca^2+ antagonists). […]

For assay [6] the test system is unchanged. Put plainly: IC50 against contractions evoked by high K+ (120 mM) in the presence of FPL 64176, circular muscle rings. As to conditions: contractions evoked by K+ (120 mM) in the presence of FPL 64176 (1 μM), means ± S.E.M.
Excerpt: as §1, with “5-10” for “5-8”, “3” for “˜3”, “Harvard-type” for “Harvard type”
as §3

Setting [7] is: [K+]o 120 mM in the presence of FPL 64176, drug 10 μM.
Where [8] appears, read: [K+]o 120 mM in the presence of FPL 64176, drug 1.0 μM.
The mark [9] stands for this setting: [K+]o 30 mM in the presence of FPL 64176 (1.0 μM), drug 10 μM.

Usually IC50 stands for the concentration that gives 50% inhibition. Usually inhibition stands for the drop in the measured response relative to a control, in per cent.

As to `CC(NCCN(c1ccccc1)c1ccccc1)c1ccccc1` (stereo not shown) [NIBA(14)XN10], in assay [1], the IC50 stood at 91 µM. In assay [2], the IC50 came to 15 µM; the “relative effectiveness against longitudinal and circular muscle contractions” value is reported as “more effective against longitudinal than circular muscle contractions”; the “Selectivity [(C/L)-1]” value amounted to 5.1.

Take `O=c1[nH]c2ccccc2n1C1CCN(CCCC(c2ccc(F)cc2)c2ccc(F)cc2)CC1` [Pimozide, pimozide]: the figures for the inhibition at 10 µM in assay [3] (setting [7]) and in assay [5] (setting [7]) were 71% and 55%, respectively. Further, the IC50 stood at 4400 ± 600 nM in assay [4] (Homo sapiens) and 8900 ± 3100 nM in assay [6] (Homo sapiens).

Turning to `CN1CCCCC1CCN(c1ccccc1)c1ccccc1` (stereo not shown) [NIBA(6)XN3], the IC50 in assay [1] was more than 30 µM. Besides, in assay [2], the IC50 stood at 6.25 µM; the “relative effectiveness against longitudinal and circular muscle contractions” value was “more effective against longitudinal than circular muscle contractions”; the “Selectivity [(C/L)-1]” value is listed as more than 3.8.

For the compound `CN1CCCC1CCN(c1ccccc1)c1ccccc1` (stereo not shown) [NIBA(53)XN16], in assay [1], the IC50 turned out to be 11 µM. In assay [2], the IC50 amounted to 4.5 µM and the “Selectivity [(C/L)-1]” value was 1.4.

As to `COCC(=O)O[C@]1(CCN(C)CCCc2nc3ccccc3[nH]2)CCc2cc(F)ccc2[C@@H]1C(C)C` [Mibefradil], the IC50 in assay [4] (Homo sapiens) stood at 1100 ± 200 nM; in assay [6] (Homo sapiens) it was 2400 ± 900 nM.

Regarding (−)-methoxyverapamil hydrochloride, in assay [3] (setting [8]), the “inhibition of longitudinal muscle contractions” value is given as 93-98%. Moreover, the IC50 amounted to 16 ± 0.9 nM in assay [4] and 18.1 ± 3.8 nM in assay [6]. In assay [5] (setting [8]), the “inhibition of circular muscle contractions” value is 93-98%.

For the compound `Fc1ccc(C(c2ccc(F)cc2)N2CCN(C/C=C/c3ccccc3)CC2)cc1` [Flunarizine, flunarizine dihydrochloride], the inhibition at 10 µM in assay [3] (setting [7]) and in assay [5] (setting [7]) was 40 to 44% throughout. The “inhibition of longitudinal muscle contractions compared to time-matched controls” value in assay [3] (setting [9]) is on record as 20-30%. Further, in assay [5] (setting [9]), the “inhibition of circular muscle contractions compared to time-matched controls” value was 20-30%.
